Patent publication US9815851B2, “Pyrrolo carboxamides as modulators of orphan nuclear receptor RAR-related orphan receptor-gamma (RORγ, NR1F3) activity and for the treatment of chronic inflammatory and autoimmune diseases” (PHENEX PHARMACEUTICALS AG, priority 2011, dated 2017)
Where two headings read alike, the source gives them in different places.

Tests used:
[1] = target: T1, RORγ ligand binding domain (LBD) (Homo sapiens, UniProt P51449); experiment: TR-FRET Activity Assay (ligand sensing, RORγ-LBD / coactivator peptide interaction, LANCE); assay type: biochemical
T1 construct: made in house; host or cells: E. coli BL-21 (BL3), vector pDEST15
T1 sequence (P51449 269-508 limits assumed): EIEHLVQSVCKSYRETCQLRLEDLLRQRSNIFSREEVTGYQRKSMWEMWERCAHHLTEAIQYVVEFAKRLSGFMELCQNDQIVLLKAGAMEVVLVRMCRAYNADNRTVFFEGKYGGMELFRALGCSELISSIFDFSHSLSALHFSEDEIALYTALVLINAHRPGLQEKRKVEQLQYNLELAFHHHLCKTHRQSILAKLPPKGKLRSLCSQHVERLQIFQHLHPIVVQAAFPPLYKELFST

RORγ = target: T2, RORγ (UniProt P51449); experiment: RORγ Gal4 Reporter Gene Assay in 293T cells (firefly and renilla luciferase); assay type: cell-based, human
T2 sequence (P51449 1-518): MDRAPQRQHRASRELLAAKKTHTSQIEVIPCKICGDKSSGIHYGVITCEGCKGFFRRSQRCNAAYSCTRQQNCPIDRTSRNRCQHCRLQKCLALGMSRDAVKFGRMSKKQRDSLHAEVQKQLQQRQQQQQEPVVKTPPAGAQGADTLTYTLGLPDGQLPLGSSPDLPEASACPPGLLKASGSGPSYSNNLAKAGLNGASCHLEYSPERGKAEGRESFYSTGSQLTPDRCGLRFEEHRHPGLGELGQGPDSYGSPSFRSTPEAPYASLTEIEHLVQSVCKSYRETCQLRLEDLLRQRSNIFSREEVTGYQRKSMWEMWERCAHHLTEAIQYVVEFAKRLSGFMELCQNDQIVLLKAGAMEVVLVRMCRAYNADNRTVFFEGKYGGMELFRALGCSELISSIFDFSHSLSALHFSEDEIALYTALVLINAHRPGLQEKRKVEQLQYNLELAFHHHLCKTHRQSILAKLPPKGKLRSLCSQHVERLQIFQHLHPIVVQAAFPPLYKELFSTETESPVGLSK

[2] = first value of the cell FRET/FF/REN, TR-FRET activity assay, read-out: pIC50 (FRET) (converted)
[3] = second value of the cell, Gal4 reporter gene assay in 293T cells, firefly luciferase
[4] = third value of the cell, Gal4 reporter gene assay in 293T cells, renilla normalised luciferase

| IC50 [1, 2] | pIC50 (FF) (RORγ; [3]) | pIC50 (REN) (RORγ; [4]) | SMILES | IC50 [1] | pIC50 (FF) (RORγ) | pIC50 (REN) (RORγ) |
| --- | --- | --- | --- | --- | --- | --- |
| 126 nM | 8.2 | 8.3 | CCC(C)(C)NS(=O)(=O)c1ccc(-c2cc(C(=O)NC3CCOCC3)c(C)n2CC2CCCCC2)cc1C(F)(F)F [17/83] |  |  |  |
| > 20000 nM | 7.2 | 7.2 | Cc1c(C(=O)NC2CCOCC2)cc(-c2ccc(S(=O)(=O)N3CCCC3(C)C)c(C(F)(F)F)c2)n1CC1CCCCC1 [17/84] |  |  |  |
| 1580 nM | 6.9 | 6.9 | Cc1c(C(=O)NC2CCNC(=O)C2)cc(-c2ccc(S(=O)(=O)NC(C)(C)C)c(C(C)(C)C)c2)n1CC1CCCCC1 (stereo not drawn) [17/89] |  |  |  |
| 1000 nM | 6.8 | 6.9 | Cc1c(C(=O)N2CCC(C)(O)CC2)cc(-c2ccc(S(=O)(=O)NC(C)(C)C)c(C(C)(C)C)c2)n1CC1CCCCC1 [17/93] |  |  |  |
| 1260 nM | 6.8 | 6.7 | Cc1c(C(=O)N2CC(O)C2)cc(-c2ccc(S(=O)(=O)NC(C)(C)C)c(C(C)(C)C)c2)n1CC1CCCCC1 [17/94] |  |  |  |
| 631 nM | 7.8 | 7.7 | Cc1c(C(=O)N(C)C2CCOCC2)cc(-c2ccc(S(=O)(=O)NC(C)(C)C)c(C(C)(C)C)c2)n1CC1CCCCC1 [17/95] |  |  |  |
| 126 nM | 8.0 | 8.0 | Cc1c(C(=O)NC2CCOCC2)cc(-c2ccc(S(=O)(=O)NC(C)(C)C)c(C(F)(F)F)c2)n1CC1CCCCC1 [17/97] |  |  |  |
| 316 nM | 6.8 | 6.9 | CCNC(=O)c1cc(-c2ccc(S(=O)(=O)NC(C)(C)C)c(C(C)(C)C)c2)n(CC2CCCCC2)c1C [17/98] |  |  |  |
| 251 nM | 6.9 | 7.0 | Cc1c(C(=O)NC2CC2)cc(-c2ccc(S(=O)(=O)NC(C)(C)C)c(C(C)(C)C)c2)n1CC1CCCCC1 [17/99] |  |  |  |
| 794 nM | 7.7 | 7.7 | Cc1c(C(=O)NC2CCOCC2)cc(-c2ccc(S(=O)(=O)NCC(F)(F)F)c(C(C)(C)C)c2)n1CC1CCCCC1 [17/101] |  |  |  |
| 501 nM | 7.3 | 7.3 | Cc1c(C(=O)NC2CCOCC2)cc(-c2ccc(S(=O)(=O)NC(C)(C)C)c(OC(F)F)c2)n1CC1CCCCC1 [17/106] |  |  |  |
| 1000 nM | 6.9 | 6.9 | Cc1c(C(=O)NC2CCOCC2)cc(-c2ccc(S(=O)(=O)NC(C)(C)CO)c(C(F)(F)F)c2)n1CC1CCCCC1 [17/107] |  |  |  |
| 2000 nM | 6.3 | 6.5 | CNS(=O)(=O)c1ccc(-c2cc(C(=O)NC3CCOCC3)c(C)n2CC2CCCCC2)cc1C(F)(F)F [17/110] |  |  |  |
| 316 nM | 7.2 | 7.3 | CCCNS(=O)(=O)c1ccc(-c2cc(C(=O)NC3CCOCC3)c(C)n2CC2CCCCC2)cc1C(F)(F)F [17/111] |  |  |  |
| 501 nM | 6.8 | 6.8 | Cc1c(C(=O)NC2CCOCC2)cc(-c2cc(Cl)c(S(=O)(=O)NC(C)(C)C)c(C(F)(F)F)c2)n1CC1CCCCC1 [17/113] |  |  |  |

The next lines start with the molecule.

| SMILES | IC50 [1, 2] | pIC50 (FF) (RORγ; [3]) | pIC50 (REN) (RORγ; [4]) | IC50 [1] | pIC50 (FF) (RORγ) | pIC50 (REN) (RORγ) |
| --- | --- | --- | --- | --- | --- | --- |
| Cc1c(C(=O)NCCC(C)(C)C(=O)O)cc(-c2cc(C(C)(C)C)cc(C3(C)CC3)c2)n1CC1CCCCC1 [17/73] | 1000 nM | 7.2 | 7.3 |  |  |  |
| Cc1c(C(=O)NCCC(C)(C)C(N)=O)cc(-c2cc(C(C)(C)C)cc(C3(C)CC3)c2)n1CC1CCCCC1 [17/74] |  |  |  | 501 nM | 6.3/7.3/7.2 | 6.3/7.3/7.2 |
| Cc1c(C(=O)NC2CCOCC2)cc(-c2cc(C(=O)NC(C)(C)C)cc(C(=O)NC(C)(C)C)c2)n1CC1CCCCC1 [17/75] |  |  |  | 6310 nM | 5.2/5.8/5.8 | 5.2/5.8/5.8 |
| Cc1c(C(=O)NCC(C)(C)O)cc(-c2cccc3c(S(=O)(=O)NC(C)(C)C)cccc23)n1CC1CCCCC1 [17/76] | 2000 nM | 6.9 | 6.9 |  |  |  |
| Cc1c(C(=O)NCC(C)(C)c2nn[nH]n2)cc(-c2cc(C(C)(C)C)cc(C3(C)CC3)c2)n1CC1CCCCC1 [17/77] | 794 nM | 8.0 | 8.1 |  |  |  |
| Cc1c(C(=O)N(C)CC2(CO)COC2)cc(-c2cc(C(C)(C)C)cc(C3(C)CC3)c2)n1CC1CCCCC1 [17/78] |  |  |  | 501 nM | 6.3/7.3/7.3 | 6.3/7.3/7.3 |
| Cc1c(C(=O)NCCCCC[S+](C)[O-])cc(-c2cc(C(C)(C)C)c3c(c2)C2(CCO3)CC2)n1CC1CCCCC1 (stereo not drawn) [17/79] |  |  |  | 1580 nM | 5.8/6.4/6.3 | 5.8/6.4/6.3 |
| Cc1c(C(=O)NCCCS(C)(=O)=O)cc(-c2cc(C(C)(C)C)c3c(c2)C2(CCO3)CC2)n1CC1CCCCC1 [17/80] | 501 nM | 6.9 | 7.0 |  |  |  |
| Cc1c(C(=O)NCC2(O)CCS(=O)(=O)CC2)cc(-c2cc(C(C)(C)C)c3c(c2)C2(CCO3)CC2)n1CC1CCCCC1 [17/81] |  |  |  | 631 nM | 6.2/7.1/7.1 | 6.2/7.1/7.1 |
| Cc1c(-c2cc(C(=O)NCC(C)(C)O)c(C)n2CC2CCCCC2)nc(C2(C)CC2)nc1C(C)(C)C [17/82] | 794 nM | 6.7 | 6.7 |  |  |  |
| CCN(C(C)(C)C)S(=O)(=O)c1ccc(-c2cc(C(=O)NC3CCOCC3)c(C)n2CC2CCCCC2)cc1C(F)(F)F [17/85] |  |  |  | > 20000 nM | <4.7/7.4/7.5 | <4.7/7.4/7.5 |
| Cc1c(C(=O)NCC(C)(C)O)cc(-c2cc(C(C)(C)C)c3c(c2)C(C)(C)CO3)n1CC1CCCCC1 [17/86] | 316 nM | 7.1 | 7.1 |  |  |  |
| Cc1c(C(=O)NC2CCOCC2)cc(-c2ccc(S(=O)(=O)NC(C)(C)C)c(C(F)(F)F)c2)n1CC1CCCC(C(F)(F)F)C1 (stereo not drawn) [17/87] |  |  |  | 501 nM | 6.3/6.9/6.9 | 6.3/6.9/6.9 |
| Cc1c(C(=O)NCC2(C(N)=O)CCOCC2)cc(-c2ccc(S(=O)(=O)NC(C)(C)C)c(C(C)(C)C)c2)n1CC1CCCCC1 [17/90] |  |  |  | 1580 nM | 5.8/7.9/8.0 | 5.8/7.9/8.0 |
| Cc1c(C(=O)NC2CS(=O)(=O)C2)cc(-c2ccc(S(=O)(=O)NC(C)(C)C)c(C(C)(C)C)c2)n1CC1CCCCC1 [17/91] |  |  |  | 631 nM | 6.2/7.1/7.0 | 6.2/7.1/7.0 |
| Cc1c(C(=O)NC2CCS(=O)(=O)CC2)cc(-c2ccc(S(=O)(=O)NC(C)(C)C)c(C(C)(C)C)c2)n1CC1CCCCC1 [17/92] |  |  |  | 1000 nM | 6.0/7.3/7.1 | 6.0/7.3/7.1 |
| Cc1c(C(=O)NC2CCOCC2)cc(-c2cc(S(=O)(=O)N3CCCCC3)c3ccccn23)n1CC1CCCCC1 [17/96] | 3160 nM | 6.9 | 7.0 |  |  |  |
| Cc1c(C(=O)NC2CCOCC2)cc(-c2ccc(S(=O)(=O)N3CCCC(C(F)(F)F)C3)c(C(C)(C)C)c2)n1CC1CCCCC1 (stereo not drawn) [17/102] |  |  |  | 251 nM | 6.6/6.8/6.9 | 6.6/6.8/6.9 |
| CC(=O)c1cc(-c2cc(C(=O)NC3CCOCC3)c(C)n2CC2CCCCC2)cc(C(C)(C)C)c1 [17/103] |  |  |  | 794 nM | 6.1/6.7/6.8 | 6.1/6.7/6.8 |
| Cc1c(C(=O)NC2CCOCC2)cc(-c2cc3c(c(C(C)(C)C)c2)OCCC3=O)n1CC1CCCCC1 [17/104] | 501 nM | 6.5 | 6.7 |  |  |  |
| Cc1c(C(=O)NC2CCOCC2)cc(-c2cc3c(c(C(C)(C)C)c2)OCCC3O)n1CC1CCCCC1 (stereo not drawn) [17/105] | 2000 nM | 6.1 | 6.3 |  |  |  |
| Cc1c(C(=O)NC2CCOCC2)cc(-c2ccc(S(=O)(=O)NC(C)(C)CCO)c(C(F)(F)F)c2)n1CC1CCCCC1 [17/108] | 1000 nM | 6.9 | 7.1 |  |  |  |
| COCC(C)(C)NS(=O)(=O)c1ccc(-c2cc(C(=O)NC3CCOCC3)c(C)n2CC2CCCCC2)cc1C(F)(F)F [17/109] |  |  |  | 631 nM | 6.2/7.2/7.3 | 6.2/7.2/7.3 |
| Cc1c(C(=O)NC2CCOCC2)cc(-c2ccc(S(=O)(=O)NC(C)C)c(C(F)(F)F)c2)n1CC1CCCCC1 [17/112] | 316 nM | 7.4 | 7.5 |  |  |  |
| Cc1c(C(=O)NCCCCCS(N)(=O)=O)cc(-c2cc(C(C)(C)C)c3c(c2)C2(CCO3)CC2)n1CC1CCCCC1 [17/114] | 631 nM | 6.5 | 6.4 |  |  |  |
| Cc1c(C(=O)NC2CCOCC2)cc(-c2ccc(S(=O)(=O)NC(C)(C)C)c(C(F)F)c2)n1CC1CCCCC1 [17/115] |  |  |  | 316 nM | 6.5/7.9/8.0 | 6.5/7.9/8.0 |
